The values that follow come from US20210260091A1, “USE OF SALIDROSIDE AND DERIVATIVE THEREOF IN PREPARATION OF INHIBITOR MEDICAMENT FOR DISEASES OF OPHTHALMIC FIBROSIS CAUSED BY ABNORMALITIES OF EXTRACELLULAR MATRIX PROTEINS” (priority 2018, published 2021).

The test system of assay [1] is laminin (LN), collagen IV (Col-IV) and fibronectin (FN) mRNA in trabecular meshwork cells. Put plainly: qRT-PCR of extracellular matrix expression in dexamethasone-induced normal human trabecular meshwork cells. Format: cell-based. On the procedure: Normal Trabecular Meshwork cells (NTM) were cultured with F12 containing 10% fetal bovine serum (FBS). When the normal human trabecular meshwork cells were 75%-80% confluent, cells were digested with pancreatic enzymes and planted into a 6-well plate with 2 mL culture media per well.
Normal human normal trabecular meshwork cells were used as a untreated control group. Normal human trabecular meshwork cells with dexamethasone added were used as the experimental control group. Normal human trabecular meshwork cells with dexamethasone and different concentrations of salidroside added were used as the experimental groups (The concentration of dexamethasone used in the experimental control group and the experimental groups was 10^−7 mol/L. The concentrations of salidroside were 1, 3, 10, 30, 100 μmol/L, respectively). The trabecular meshwork cells were cultured for 0, 3, 6, 12, 24, 48 h.
Primer sequences for laminin (LN), collagen IV (Col-IV) and fibronectin (FN) mRNA were designed. Messenger RNA levels of LN, Col-IV, and FN were detected with qRT-PCR. Anti-LN, anti-Col-IV, and anti-FN antibodies were used to detect protein expression of the trabecular meshwork extracellular matrix protein in immunocytochemistry.
FIGS. 1-3 show the effect of salidroside detected by the qRT-PCR on the extracellular matrix proteins of human trabecular meshwork induced by the dexamethasone. […]

The nature of assay [2]: Mouse glaucoma model (intravitreal TGF-β2 overexpression adenovirus vector), intraocular pressure. Format: in vivo, Balb/cJ mice. Conditions: 40 mg/kg intraperitoneal once daily. On the procedure:
1. Salidroside powder was dissolved in normal saline to make 40 mg/kg salidroside solution. 2. Male Balb/cJ mice 8 to 12 weeks old and weighted about […] were used. The selected mice met the requirement of the first-level animal standards. Mice and feed were provided by the Experimental Animal Center of the Ninth People's Hospital, affiliated with Shanghai Jiaotong University School of Medicine. Vivarium temperature was controlled between 15 to 20° C., and relative humidity was 55 to 75%, with 12h light. Food and drinking water were on an ad libitum basis. Mice that met the inclusion criteria were selected: (1) no eye disease; (2) pupillary light reflexes in both eyes in response to direct and indirect light were normal. 4. Intraocular pressure in both the left and the right eye of each conscious mouse was measured and recorded. 5. Weight measurements of each mouse were taken. 4% chloral hydrate was injected to anaesthetize mice at a dose of 10 μL/g body weight; 6. Mouse glaucoma model: 3 μL TGF-β2 overexpression adenovirus vector (3×10^7 pfu/μL) was injected into the vitreous chamber to induce ocular hypertension. […] On the day of adenovirus vector intravitreal injection, mouse intraocular pressure was measured once. Intraocular pressure was measured again on the next day and subsequent selected days to avoid damage to the cornea caused by frequent measurement. […]

Assay [3] can be described thus: Rabbit glaucoma model (1% dexamethasone eye drops), intraocular pressure. Type of assay: in vivo, New Zealand white rabbit. Conditions: one week; for Average intraocular pressure, Left eye: 3 times a day, two drops, 4 h after treatment; for IOP reduction rate: left eye vs right eye; for Average intraocular pressure, Right eye: right eye as control. On the procedure:
1. Salidroside powder was dissolved in normal saline to prepare salidroside eye drops at the concentrations of 20 μM, 25 μM, 30 μM.
2. Fitly healthy, adult New Zealand white rabbit with body weight between 2.0 to 3.0 kg, consisting of equal numbers of male and female, were chosen for study. Rabbit glaucoma model was established by dosing the animals with 1% dexamethasone eye drops on both eyes 5 times a day for a total induction time of 3 weeks. Intraocular pressure was monitored starting from week 2. Glaucoma model was considered successfully established when intraocular pressure, measured at the same time of the day, was above 22 mmHg for a week. Glaucoma model was successful established on all 50 rabbits with the average intraocular pressure of 26.07±2.03 mmHg (n=100 eyes). Rabbits were randomly divided into 5 groups of 10: the normal control group, positive drug group (Travatan®, 0.004% travoprost eye drops), and three salidroside groups (20 μM, 25 μM, 30 μM salidroside).
Positive drug group was treated with Travatan® in the left eye, three times a day, two drops each time. Intraocular pressure was measured 4 hours after treatment. Treatment lasted for two weeks. The three salidroside groups were treated with salidroside eye drops three times a day, two drops each time. Intraocular pressure was measured 4 hours after treatment. Treatment lasted for two weeks. The normal control group received eye drops in both eyes three times a day, two drops each time. Intraocular pressure was measured 4 hours after receiving eye drops. Eye drops were administered for 2 weeks.
One week after the start of experiment, the average pressure for each eye after each measurement in each group is shown in Table 1.

Structures are written as SMILES.

Take `OC[C@H]1O[C@@H](OCCc2ccc(O)cc2)[C@H](O)[C@@H](O)[C@@H]1O` [Salidroside, 2-(4-HYDROXYPHENYL) ETHYL-BETA-D-GLUCOPYRANOSIDE]: in assay [1] (applicant's previous studies, dexamethasone-induced cells, after intervention of salidroside), the “expression level of TGF beta, FN, COL-IV and LN” value is on record as “decreases”. The “extracellular matrix proteins of the trabecular meshwork (FN, COL-IV, LN; qRT-PCR)” value in assay [1] (dexamethasone 10^-7 mol/L plus salidroside 1, 3, 10, 30, 100 μmol/L, normal human trabecular meshwork cells) is listed as “reduced”. The “intraocular pressure vs glaucoma control group” value in assay [2] (salidroside intervention group (treated immediately after vector injection), 11th day after initiation) is reported as “statistically significantly lowered”; in assay [2] (salidroside treatment group (treated after IOP increased and stabilized), 18th day after initiation), “statistically significantly lowered”. Moreover, the “Average intraocular pressure, Left eye” value in assay [3] (20 μM eye drops) worked out at 15.57 ± 1.52 mmHg; in assay [3] (25 μM eye drops) it was 15.07 ± 1.19 mmHg; in assay [3] (30 μM eye drops) it was 14.37 ± 1.54 mmHg. Also, the figures for the IOP reduction rate in assay [3] (20 μM eye drops), in assay [3] (25 μM eye drops) and in assay [3] (30 μM eye drops) were 30.98%, 34.56% and 37.19%, respectively. For the same compound, the “Average intraocular pressure, Right eye” value in assay [3] (20 μM group) stood at 22.56 ± 1.72 mmHg; in assay [3] (25 μM group), 23.03 ± 1.02 mmHg; in assay [3] (30 μM group), 22.88 ± 1.09 mmHg. Also, the “average intraocular pressure in the left eye compared with the corresponding right eye as a control” value in assay [3] (P<0.01) is given as “significant lowered”. Also, the “IOP-lowering effect compared with the Travatan group” value in assay [3] (salidroside groups 20, 25, 30 μM eye drops) is given as “better than that of the Travatan® group”.
